The subject of one series is HIV-1IIIB. The experiment in a line: HIV-1 cytoprotection (CPE reduction) antiviral assay. To be noted: for inhibition at 10 µM: read-out: CPE reduction %; for antiviral activity, in words: single concentration 10 μM, CPE assay. Type of series: cell-based. The protocol: (§1) The antiviral activity of newly synthesized analogues of chemotype 7 was evaluated against HIV-1IIIB in CEM-SS cells using an assay based on viral cytopathic effect (CPE). In this assay, the reduction of CPE was used to indicate the antiviral activity of a compound.
Briefly virus and cells were mixed in the presence of test compound and incubated for 6 days. […] Each assay plate contained cell control wells (cells only), virus control wells (cells plus virus), compound toxicity control wells (cells plus compound only), compound colorimetric control wells (compound only) as well as experimental wells (compound plus cells plus virus). Cytoprotection and compound cytotoxicity were assessed by MTS (CellTiter® 96 Reagent, Promega, Madison Wis.) and the EC50 (concentration inhibiting virus replication by 50%), CC50 (concentration resulting in 50% cell death) and a calculated TI (therapeutic index CC50/EC50) were provided. Each assay included AZT as a positive control.

Another series relates to CEM-SS cells. As to the kind of experiment: Compound cytotoxicity (MTS) in the HIV cytoprotection assay. To be noted: for Cell viability %: 10 μM, CEM-SS cells; for CC50: Concentration resulting in 50% cell death. Format: cell-based. The protocol:
as §1
Briefly virus and cells were mixed in the presence of test compound and incubated for 6 days. […] Each assay plate contained cell control wells (cells only), virus control wells (cells plus virus), compound toxicity control wells (cells plus compound only), compound colorimetric control wells (compound only) as well as experimental wells (compound plus cells plus virus). […] Each assay included AZT as a positive control.

The next series concerns the target T1, HIV-1 integrase (Human immunodeficiency virus type 1 group M subtype B, UniProt P04585).
T1 construct: HIV integrase was expressed and purified as previously reported; made in house; host or cells: Escherichia coli
The experiment in a line: HIV-1 integrase strand transfer (INST) assay. Format: biochemical. The protocol:
HIV integrase was expressed and purified as previously reported.^43 Inhibition assays were performed using a modified protocol of a reported method.^43 Briefly, 2.1 μL of compound suspended in DMSO was placed in duplicate into a Black 96 well non-binding plate (coming 3991). Compounds were plated in duplicate to a final concentration of 0.13-100 μM. To each well of the plate 186.9 μL of reaction mixture without DNA substrate was added (10 mM HEPES pH 7.5, 10% glycerol w/v, 10 mM MnCl2, 1 mM DTT, 1 μM integrase). The enzyme was incubated with inhibitor for 10 min at 25° C. after which the reaction was initiated by the addition of 21 μL of 500 nM oligo (5′ biotin […] annealed with […] 3′ Cy5). Reactions were incubated at 37° C. for 30 min and then quenched by the addition of 5.2 μL 500 mM EDTA. Each reaction was moved (200 μL) to a MultiScreen HTS PCR plate (Millipore MSSLBPC10) containing 20 μL streptavidin agarose beads (Life Technologies S951) and incubated with shaking for 30 min. A vacuum manifold was used to remove the reaction mixture and the beads were similarly washed 3 times with wash buffer (0.05% SDS, 1 mM EDTA in PBS). The plates were further washed 3 times with 200 μL 50 mM NaOH to denature DNA not covalently linked to the biotin modification. For each denaturation step the plate was incubated with shaking at 25° C. for 5 min and the NaOH was removed by centrifugation at 1000 g for 1 min. The reaction products were eluted from the beads by the addition of 150 μL formamide. The plate was incubated at 25° C. for 10 min and read directly at 635/675 in a SpectraMax i3 plate reader (Molecular Devices). Expression and purification of the recombinant IN in Escherichia coli were performed as previously reported^39, 44 with addition of 10% glycerol to all buffers. Preparation of oligonucleotide substrates has been described.^45 Integrase reactions were performed in 10 μL with 400 nM of recombinant IN, 20 nM of 5′-end [^32P]-labeled oligonucleotide substrate and inhibitors at various concentrations. Solutions of 10% DMSO without inhibitors were used as controls. Reactions were incubated at 37° C. (60 minutes) in buffer containing 50 mM MOPS, pH 7.2, 7.5 mM MgCl2, and 14.3 mM 2-mercaptoethanol. Reactions were stopped by addition of 10 μL of loading dye (10 mM EDTA, 98% deionized formamide, 0.025% xylene cyanol and 0.025% bromophenol blue). Reactions were then subjected to electrophoresis in 20% polyacrylamide-7 M urea gels. Gels were dried and reaction products were visualized and quantitated with a Typhoon 8600 (GE Healthcare, Little Chalfont, Buckinghamshire, UK). Densitometric analyses were performed using ImageQuant from Molecular Dynamics Inc. The concentrations at which enzyme activity was reduced by 50% (IC50) were determined using “Prism” software (GraphPad Software, San Diego, Calif.) for nonlinear regression to fit dose-response data to logistic curve models.

Where [1] appears, read: Human immunodeficiency virus 1, 10 μM, HIV-1IIIB in CEM-SS cells.
Setting [2] is: Human immunodeficiency virus 1, CEM-SS.
The mark [3] stands for this setting: Human immunodeficiency virus 1, summary of Table 2, read-out: EC50.

SMILES strings stand for the structures. Like-named read-outs stand apart in the source and are kept apart here.

On to `CCNc1[nH]c(=O)n(O)c(=O)c1C(=O)NCc1cccc(F)c1` [Compound 7-xv, N-(3-Fluorobenzyl)-1-(hydroxy)-4-(ethylamino)-1,2,3,6-tetrahydro-2,6-dioxopyrimidine-5-carboxamide], for which the inhibition at 10 µM in the series with HIV-1IIIB (setting [1]) was determined as 100%. Also, in the series with CEM-SS cells, the Cell viability % is reported as 90%. The IC50 on HIV-1 integrase (read-out: INST IC50) came out at 68 ± 7 nM.

`CCNc1[nH]c(=O)n(O)c(=O)c1C(=O)NCc1ccc(F)cc1` [Compound 7-xvi, N-(4-Fluorobenzyl)-1-(hydroxy)-4-(ethylamino)-1,2,3,6-tetrahydro-2,6-dioxopyrimidine-5-carboxamide]: the EC50 in the series with HIV-1IIIB (Human immunodeficiency virus 1) is 33 nM; with HIV-1IIIB (setting [3]) it was 15 to 61 nM. Moreover, in the series with HIV-1IIIB (setting [2]), the inhibition at 10 µM was found to be 100%. The compound further yielded a Cell viability % in the series on CEM-SS cells of 99%. Besides, in the series with CEM-SS cells, half-maximal cytotoxicity (CC50) was put at 19000 nM. Moreover, the IC50 was 21 to 77 nM at HIV-1 integrase (read-out: IC50 (ST)) and 49 ± 4 nM at HIV-1 integrase (read-out: INST IC50).

For the compound `CCNc1[nH]c(=O)n(O)c(=O)c1C(=O)NCc1ccc(F)cc1F` [Compound 7-xviii, N-(2,4-Difluorobenzyl)-1-(hydroxy)-4-(ethylamino)-1,2,3,6-tetrahydro-2,6-dioxopyrimidine-5-carboxamide], the inhibition at 10 µM in the series with HIV-1IIIB (setting [1]) is 92%. In the series with CEM-SS cells, this compound had a Cell viability % of 87%. Besides, the IC50 on HIV-1 integrase (read-out: INST IC50) was 48 ± 7 nM.

With `CCNc1[nH]c(=O)n(O)c(=O)c1C(=O)NCc1ccc(F)c(F)c1` [Compound 7-xx, N-(3,4-Difluorobenzyl)-1-(hydroxy)-4-(ethylamino)-1,2,3,6-tetrahydro-2,6-dioxopyrimidine-5-carboxamide], the EC50 with HIV-1IIIB (Human immunodeficiency virus 1) was 49 nM; with HIV-1IIIB (setting [3]), 15 to 61 nM. In addition, in the series on HIV-1IIIB (setting [2]), the inhibition at 10 µM came out at 100%. Further, in the series on CEM-SS cells, the Cell viability % worked out at 100%. Moreover, the CC50 with CEM-SS cells came to 21000 nM. Besides, the IC50 on HIV-1 integrase (read-out: IC50 (ST)) was 21 to 77 nM; at HIV-1 integrase (read-out: INST IC50) it was 77 ± 11 nM.

Consider `CCNc1[nH]c(=O)n(O)c(=O)c1C(=O)NCc1cc(F)ccc1Cl` [Compound 7-xxi, N-(2-Chloro-5-fluorobenzyl)-1-(hydroxy)-4-(ethylamino)-1,2,3,6-tetrahydro-2,6-dioxopyrimidine-5-carboxamide], for which, in the series on HIV-1IIIB (setting [1]), the inhibition at 10 µM amounted to 62%. Moreover, in the series on CEM-SS cells, the Cell viability % is 73%. Also, the IC50 on HIV-1 integrase (read-out: INST IC50) worked out at 95 ± 19 nM.

In the series with HIV-1IIIB (Human immunodeficiency virus 1), `CCNc1[nH]c(=O)n(O)c(=O)c1C(=O)NCc1ccc(C)c(F)c1` [Compound 7-xxiv, N-(3-Fluoro-4-methylbenzyl)-1-(hydroxy)-4-(ethylamino)-1,2,3,6-tetrahydro-2,6-dioxopyrimidine-5-carboxamide] registered an EC50 of 150 nM. Further, in the series with HIV-1IIIB (setting [1]), the inhibition at 10 µM worked out at 100%. In the series on CEM-SS cells, this compound yielded a Cell viability % of 100% and a CC50 of 20000 nM. For the same compound, the IC50 at HIV-1 integrase (read-out: INST IC50) was found to be 51 ± 13 nM.

For `CCNc1[nH]c(=O)n(O)c(=O)c1C(=O)Nc1ccccc1` [Compound 7-xxv, 1-(Hydroxy)-4-(ethylamino)-1,2,3,6-tetrahydro-2,6-dioxo-N-phenylpyrimidine-5-carboxamide], the inhibition at 10 µM in the series on HIV-1IIIB (setting [1]) worked out at 11%. Also, the “antiviral activity, in words” value in the series with HIV-1IIIB is reported as “complete loss of activity”. Further, the Cell viability % in the series with CEM-SS cells is on record as 27%. The IC50 at HIV-1 integrase (read-out: INST IC50) stood at 35000 ± 17000 nM.

Consider `CCNc1[nH]c(=O)n(O)c(=O)c1C(=O)NCCc1ccccc1` [Compound 7-xxvi, 1-(Hydroxy)-4-(ethylamino)-1,2,3,6-tetrahydro-2,6-dioxo-N-phenethylpyrimidine-5-carboxamide], for which the inhibition at 10 µM in the series with HIV-1IIIB (setting [1]) was 99%. For the same compound, the “antiviral activity, in words” value with HIV-1IIIB is given as “largely retained”. In the series on CEM-SS cells, this compound displayed a Cell viability % of 87%. Besides, the IC50 on HIV-1 integrase (read-out: INST IC50) turned out to be 100 ± 30 nM.

Regarding `CCNc1[nH]c(=O)n(O)c(=O)c1C(=O)NCCCl` [Compound 7-xxvii, 1-(Hydroxy)-N-(2-chloroethyl)-4-(ethylamino)-1,2,3,6-tetrahydro-2,6-dioxopyrimidine-5-carboxamide], the inhibition at 10 µM with HIV-1IIIB (setting [2]) was 5.1%. In the series with HIV-1IIIB, the “antiviral activity, in words” value is reported as “completely abrogated antiviral activity”. The compound further gave a Cell viability % with CEM-SS cells of 100%. The “inhibition of ST in the ST assay, in words” value against HIV-1 integrase is reported as “none”.

For the origin of these results see patent publication US10117871B2, “3-hydroxypyrimidine-2,4-dione-5-carboxamides as potent inhibitors of HIV” (Regents of the University of Minnesota, priority 2015, dated 2018).
